# Laboratory results published in ChEMBL document CHEMBL1138843, “Pyrazolo[1,5-a]pyrimidines: estrogen receptor ligands possessing estrogen receptor beta antagonist activity” (J Med Chem, 2004).
# Assays:
# [1] = molecular target: Estrogen receptor beta (Homo sapiens) (UniProt Q92731)
# Description: Relative binding affinity for human estrogen receptor 2 compared to [3H]estradiol (100%)
# [2] = molecular target: T1, Estrogen receptor (Homo sapiens) (UniProt P03372)
# T1 sequence (whole entry): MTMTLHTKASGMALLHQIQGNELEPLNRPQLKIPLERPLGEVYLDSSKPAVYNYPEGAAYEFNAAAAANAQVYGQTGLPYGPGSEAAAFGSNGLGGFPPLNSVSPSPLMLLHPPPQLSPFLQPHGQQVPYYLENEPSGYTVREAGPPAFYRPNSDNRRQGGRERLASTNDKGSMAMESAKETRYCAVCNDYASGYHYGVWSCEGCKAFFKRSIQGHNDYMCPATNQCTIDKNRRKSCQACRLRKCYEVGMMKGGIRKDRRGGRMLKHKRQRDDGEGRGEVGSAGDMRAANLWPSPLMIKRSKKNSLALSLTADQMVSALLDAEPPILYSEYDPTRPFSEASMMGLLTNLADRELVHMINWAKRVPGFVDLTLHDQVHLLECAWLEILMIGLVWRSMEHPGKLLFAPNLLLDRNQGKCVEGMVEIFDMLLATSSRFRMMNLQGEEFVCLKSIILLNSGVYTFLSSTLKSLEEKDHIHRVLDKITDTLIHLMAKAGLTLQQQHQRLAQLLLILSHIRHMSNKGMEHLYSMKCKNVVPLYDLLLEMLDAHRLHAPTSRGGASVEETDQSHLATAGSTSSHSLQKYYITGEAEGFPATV
# Description: Relative binding affinity for human estrogen receptor 1 compared to [3H]estradiol (100%)
# Note: unit not given here.
# Chain of Estrogen receptor beta (Homo sapiens) (Q92731 whole entry): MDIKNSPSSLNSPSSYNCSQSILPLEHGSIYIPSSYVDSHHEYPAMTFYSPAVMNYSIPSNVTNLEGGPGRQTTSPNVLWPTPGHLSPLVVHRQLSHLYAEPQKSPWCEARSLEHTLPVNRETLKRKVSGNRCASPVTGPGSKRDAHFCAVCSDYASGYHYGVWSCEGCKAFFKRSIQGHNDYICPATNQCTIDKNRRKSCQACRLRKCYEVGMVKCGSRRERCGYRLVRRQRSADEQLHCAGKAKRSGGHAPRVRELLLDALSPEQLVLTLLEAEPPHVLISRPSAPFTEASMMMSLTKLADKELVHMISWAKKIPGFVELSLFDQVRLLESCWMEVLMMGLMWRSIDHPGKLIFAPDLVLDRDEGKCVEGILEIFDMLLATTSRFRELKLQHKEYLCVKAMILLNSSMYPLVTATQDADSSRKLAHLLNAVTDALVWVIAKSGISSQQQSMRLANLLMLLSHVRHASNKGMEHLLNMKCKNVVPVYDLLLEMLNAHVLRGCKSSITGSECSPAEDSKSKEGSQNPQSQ
SMILES,Binding affinity [1],Binding affinity [2]
Cc1nc2c(-c3ccccc3)c(-c3ccc(O)cc3)nn2c(C)c1C,0.02,0.01
Oc1ccc(-c2nn3c(C(F)(F)F)cc(C(F)(F)F)nc3c2-c2ccccc2)cc1,0.41,0.39
Cc1c(C(C)(C)C)nc2c(-c3cccc(O)c3)c(-c3ccc(O)cc3)nn2c1C(C)(C)C,0.01,0.02
CC(C)c1cc(C(C)C)n2nc(-c3ccccc3)c(-c3ccc(O)cc3)c2n1,0.05,0.01
Oc1ccc(-c2nn3cccnc3c2-c2ccccc2)cc1,0.02,< 0.01
CCc1cc(CC)n2nc(-c3ccc(O)cc3)c(-c3cccc(O)c3)c2n1,< 0.01,< 0.01
Oc1ccc(-c2c(-c3ccccc3)nn3cccnc23)cc1,0.05,0.01
Cc1nc2c(-c3ccc(O)cc3)c(-c3ccc(O)cc3)nn2c(C)c1C,0.01,0.01
Oc1ccc(-c2nn3c(C(F)(F)F)cc(C(F)(F)F)nc3c2-c2cccc(O)c2)cc1,0.08,0.04
Cc1nc2c(-c3cccc(O)c3)c(-c3ccc(O)cc3)nn2c(C)c1C,< 0.01,< 0.01
Oc1ccc(-c2c(-c3cccc(O)c3)nn3cccnc23)cc1,< 0.01,< 0.01
Oc1ccc(-c2c(-c3ccccc3)nn3c(C(F)(F)F)cc(C(F)(F)F)nc23)cc1,0.05,0.01
Oc1ccc(-c2nn3cccnc3c2-c2ccc(O)cc2)cc1,0.1,< 0.01
CCc1cc(CC)n2nc(-c3ccc(O)cc3)c(-c3ccc(O)cc3)c2n1,0.07,0.16
Cc1cc(C)n2nc(-c3ccc(O)cc3)c(-c3ccc(O)cc3)c2n1,0.07,0.04
Oc1ccc(-c2nn3cccnc3c2-c2cccc(O)c2)cc1,< 0.01,< 0.01
Cc1c(C(C)(C)C)nc2c(-c3ccc(O)cc3)c(-c3ccc(O)cc3)nn2c1C(C)(C)C,0.16,0.13
CCc1cc(CC)n2nc(-c3ccccc3)c(-c3ccccc3)c2n1,< 0.01,< 0.01
Cc1cc(C)n2nc(-c3ccc(O)cc3)c(-c3cccc(O)c3)c2n1,< 0.01,< 0.01
Oc1ccc(-c2nn3c(-c4ccccc4)cc(-c4ccccc4)nc3c2-c2ccc(O)cc2)cc1,0.03,0.02
CC(C)c1cc(C(C)C)n2nc(-c3ccc(O)cc3)c(-c3ccccc3)c2n1,0.06,0.14
Cc1nc2c(-c3ccc(O)cc3)c(-c3ccccc3)nn2c(C)c1C,0.01,< 0.01

SMILES,Binding affinity [1],Binding affinity [2]
CCc1cc(CC)n2nc(-c3cccc(O)c3)c(-c3ccc(O)cc3)c2n1,< 0.01,< 0.01
Oc1ccc(-c2nn3c(C(F)(F)F)cc(C(F)(F)F)nc3c2-c2ccc(O)cc2)cc1,1.7,1.9
Oc1ccc(-c2c(-c3cccc(O)c3)nn3c(-c4ccccc4)cc(-c4ccccc4)nc23)cc1,< 0.01,< 0.01
CC(C)c1cc(C(C)C)n2nc(-c3ccc(O)cc3)c(-c3ccc(O)cc3)c2n1,0.07,0.1
CCc1cc(CC)n2nc(-c3ccc(O)cc3)c(-c3ccccc3)c2n1,0.06,0.13
Cc1cc(C)n2nc(-c3ccc(O)cc3)c(-c3ccccc3)c2n1,0.11,0.02
c1ccc(-c2nn3cccnc3c2-c2ccccc2)cc1,< 0.01,< 0.01
Cc1c(C(C)(C)C)nc2c(-c3ccc(O)cc3)c(-c3cccc(O)c3)nn2c1C(C)(C)C,< 0.01,< 0.01
Oc1ccc(-c2nn3c(-c4ccccc4)cc(-c4ccccc4)nc3c2-c2cccc(O)c2)cc1,< 0.01,< 0.01
Cc1cc(C)n2nc(-c3cccc(O)c3)c(-c3ccc(O)cc3)c2n1,< 0.01,< 0.01
CCc1cc(CC)n2nc(-c3ccccc3)c(-c3ccc(O)cc3)c2n1,0.05,0.02
Oc1ccc(-c2nn3c(-c4ccccc4)cc(-c4ccccc4)nc3c2-c2ccccc2)cc1,< 0.01,< 0.01
Cc1c(C(C)(C)C)nc2c(-c3ccc(O)cc3)c(-c3ccccc3)nn2c1C(C)(C)C,0.01,< 0.01
Oc1ccc(-c2c(-c3cccc(O)c3)nn3c(C(F)(F)F)cc(C(F)(F)F)nc23)cc1,0.04,0.01
FC(F)(F)c1cc(C(F)(F)F)n2nc(-c3ccccc3)c(-c3ccccc3)c2n1,< 0.01,< 0.01
Oc1ccc(-c2c(-c3ccccc3)nn3c(-c4ccccc4)cc(-c4ccccc4)nc23)cc1,< 0.01,< 0.01
Cc1cc(C)n2nc(-c3ccccc3)c(-c3ccccc3)c2n1,< 0.01,< 0.01
Cc1c(C(C)(C)C)nc2c(-c3ccccc3)c(-c3ccc(O)cc3)nn2c1C(C)(C)C,0.02,0.83
CC(C)c1cc(C(C)C)n2nc(-c3cccc(O)c3)c(-c3ccc(O)cc3)c2n1,0.01,< 0.01
Cc1nc2c(-c3ccc(O)cc3)c(-c3cccc(O)c3)nn2c(C)c1C,< 0.01,< 0.01
Cc1cc(C)n2nc(-c3ccccc3)c(-c3ccc(O)cc3)c2n1,0.05,0.01
CC(C)c1cc(C(C)C)n2nc(-c3ccc(O)cc3)c(-c3cccc(O)c3)c2n1,< 0.01,0.01
